Test results reported in paper PMC8232238 (Cells, 2021).

Test system: acetylated histone in A549 cells
Test: Histone acetylation in A549 cells, immunostaining with high content imaging
Format: cell-based, human
Conditions: 24 h
Protocol: To confirm the observed activities of the selected test compounds against HDAC6, the acetylation status of tubulin in the human lung cancer cell line A549 was investigated by immunostaining combined with automated high content image analysis (see supplementary material for full details). […] The apparent drop in histone acetylation by both compounds above 10 μM is indicative of a potential cytotoxicity at higher concentrations (data not shown).
Figure 5 Cell-based assessment of HDAC activity and selectivity. Dose and time-dependency of tubulin and histone acetylation by test compounds. A549 cells were treated with (A,B) different concentrations (0–50 µM) of CF011, KNH019 and tubastatin for 24 h or with (C,D) 1 µM over different time intervals before (A,C) tubulin acetylation or (B,D) histone acetylation were automatically quantified using high content imaging. Data represent the average of four independent experiments with four replicate wells/experiments. The statistical significances of effects compared to the untreated control were analysed using Brown–Forsythe and Welch one-way ANOVA analyses using Graph Pad Prism. The significance was set as * 0.05 > p ≥ 0.01, ** 0.01 > p ≥ 0.002. Error bars represent the Standard Error of Mean (SEM). (E) Representative fluorescence images show tubulin acetylation (yellow), histone acetylation (red) and nuclear counterstain (DAPI, blue) after 24 h of exposure to test compounds. Secondary antibodies were detected using excitation/emission filters for CY3 (excitation: 542/27 nm, emission: 597/45 nm), CY5 (excitation: 632/22 nm, emission: 684/25 nm) and DAPI (excitation: 390/18 nm, emission: 435/48 nm), respectively. […]
S2.2 Cell Culture, Treatment and Immunostaining:
A549 cells (ATCC® CCL-185™, In Vitro Technologies Pty. Ltd., Victoria, Australia) were cultured in low glucose Dulbecco’s Modified Eagle Media (DMEM, 1 g/L glucose, 0.584 g/L L-glutamine, 3.7 g/L sodium bicarbonate, 10 % fetal bovine serum) under standard conditions (> 90 % humidity, 37 °C temperature, 5 % CO 2). For experiments, 5,000 cells/ well were seeded in 100 µl serum free DMEM in 384 well plates (µCLEAR®, Greiner) and left to adhere for 24 hours before the treatment. Cells were treated with 100 µl of test compound -containing media for up to 24 hours before cells were fixed with 4 % paraformaldehyde (PFA) solution in PBS (10 minutes at room temperature (RT)) and permeabi lized with 50 µl of 0.5 % Triton X -100 in PBS. Subsequently, cells were blocked in PBST (5% fetal bovine serum, 5% bovine serum albumin, 5% goat serum, 0.1% Tween 20 in PBS) before stained with anti - acetylated tubulin (T7451, Sigma Aldrich; 1:1,000) and an ti-acetylated histone antibody (ab47915, Abcam; 1:1,000) overnight at 4 °C. Subsequently, cells were exposed to secondary antibodies (goat anti-mouse Alexa fluor 594 (Invitrogen; 1:10,000) and goat anti -rabbit Alexa fluor 647 (Invitrogen; 1:10,000) in PBST ) and DAPI solution (Invitrogen; 1:10,000 in PBST) before images were acquired.
Fluorescence images were acquired (10x magnification, 2 -D format) using the InCell 2200 high content imaging system (V7.3, GE Healthcare life sciences) wi th CY3 (excitation: 542/27 nm, emission: 597/45 nm), CY5 (excitation: 632/22 nm, emission: 684/25 nm) and DAPI (excitation: 390/18 nm, emission:
435/48 nm) filters. […] Data was expressed as % Relative Fluorescence Units (RFU) […]

`O=C(CCCCCN1C(=O)c2cccc3cc(NC(=O)c4ccccc4)cc(c23)C1=O)NO` [KNH019] was tested, and the “Histone acetylation in representative immunostaining images” value (10 µM) was “strongly induce” and the “Concentration from which histone acetylation was significantly increased” value (compared to untreated cells) was 10^−2 mM.
